As a reminder, the MFC is the smallest concentration meeting the test's criterion for killing the fungus. The term MIC denotes the least concentration at which growth counts as inhibited. A word on the IC50: it is the point on the concentration scale where inhibition reaches its midpoint.

The subject of series [1] is Toxoplasma gondii RH strain. Description: [3H]-uracil incorporation assay in VERO host cells. To be noted: Toxoplasma gondii, Vero; for activity at 0.98 µg/mL / activity at 1.95 µg/mL / activity at 3.91 µg/mL / activity at 7.81 µg/mL / activity at 15.63 µg/mL / activity at 20 µg/mL / activity at 25 µg/mL / activity at 31.25 µg/mL: read-out: Proliferation of Toxoplasma gondii RH strain ± SD; for IC50: read-out: IC50 anti-Tg.

Series [2] has as its system Candida albicans ATCC 10231. Description: Broth microdilution MIC/MFC, reference strain. The format is cell-based. To be noted: Candida albicans, ATCC10231, C. albicans ATCC 10231; for MFC: read-out: MFC; for MIC: read-out: MIC. An excerpt: (§1) The examined compounds 3a–3j were screened in vitro for antibacterial and antifungal activities using the broth microdilution method according to European Committee on Antimicrobial Susceptibility Testing (EUCAST) (EUCAST [2003]) and Clinical and Laboratory Standards Institute guidelines (CLSI [2012]) against reference strains of microorganisms from American Type Culture Collection (ATCC), including fungi belonging to yeasts (Candida albicans ATCC 2091, Candida albicans ATCC 10231, Candida parapsilosis ATCC 22019 and Candida krusei ATCC 14243).
(§2) In the study of antifungal activity of the compounds 3a–3j, 15 clinical strains of different species of yeasts from Candida species, namely C. albicans, C. dubliniensis C. famata, C. inconspicua, C. krusei, C. tropicalis, C. glabrata, C. lambica, C. kefyr, C. lusitaniae, C. parapsilosis, C. guilliermondii, C. lusitaniae, C. pulcherrima and C. sake were also used. These fungi were isolated by the author (from Department of Pharmaceutical Microbiology of Medical University in Lublin, Poland) from different clinical materials, e.g., from upper respiratory tract of hospitalized patients including cancer patients (i.e., with non-small cell lung cancer or hematological malignancies). Some patients were after pre-operative or post-operative chemotherapy (treated with etoposide or cis-platin given in doses according to the standard procedures), patients with chronic hepatitis C (undergoing peginterferon and ribavirin therapy or without antiviral therapy), patients with diabetes, elderly people, aged of 65 years old or older, staying in close population, such as a care centre and people staying outside the home care. The Ethical Committee of the Medical University of Lublin approved the study protocol (No. KE-0254/75/2011). The isolates were identified by standard diagnostic methods—biochemical microtest, e.g., API 20C AUX, ID 32C, API Candida (bioMérieux) on the basis of assimilation of various substrates. All the used microbial cultures were first subcultured on nutrient agar or Sabouraud agar for bacteria and fungi, respectively. The RPMI 1640 with MOPS (for fungi) were inoculated with the suspensions of fungal species. Microbial suspensions were prepared in sterile saline (0.85% NaCl) with an optical density of 0.5 McFarland standard scale (Wiegand et al. [2008]). Samples containing examined compounds were dissolved in dimethyl sulfoxide (DMSO). Furthermore, fungal suspensions were put onto Petri dishes with solid media containing 2 mg/ml of the tested compounds followed incubation under appropriate conditions. The inhibition of microbial growth was judged by comparison with a control culture prepared without any sample tested. Nystatin (Sigma) was used as a reference antifungal compound. Subsequently MIC minimal inhibitory concentration (MIC) of the compounds was examined by the microdilution broth method, using their two-fold dilutions in RPMI 1640 broth with MOPS prepared in 96-well polystyrene plates. Final concentrations of the compounds ranged from 1000 to 0.0038 µg/ml. Microbial suspensions were prepared in sterile saline with an optical density of 0.5 McFarland standard. Next fungal suspension was added per each well containing broth and various concentrations of the examined compounds. After incubation, the MIC was assessed spectrophotometric as the lowest concentration of the samples showing complete fungal growth inhibition. Appropriate DMSO, growth and sterile controls were carried out. The medium with no tested substances was used as a control (Wiegand et al. [2008]). The minimal fungicidal concentration (MFC) are defined as the lowest concentration of the compounds that is required to kill a particular fungal species. MFC was determined by removing the culture using for MIC determinations from each well and spotting onto appropriate agar medium. The plates were incubated. The lowest compounds concentration with no visible growth observed was assessed as a fungicidal concentration. […]

In series [3] the test system is Candida parapsilosis ATCC 22019. Description: Broth microdilution MIC/MFC, reference strain. It is filed as cell-based. To be noted: Lodderomyces parapsilosis, ATCC22019, C. parapsilosis ATCC 22019; for MFC: read-out: MFC; for MIC: read-out: MIC.
Description: as §1, §2
For orientation: In broth dilution the organism is exposed to a series of concentrations in liquid medium.

Series [4] has as its system Candida albicans ATCC 2091. Description: Broth microdilution MIC/MFC, reference strain. The format is cell-based. To be noted: Candida albicans, ATCC2091, C. albicans ATCC 2091; for MFC: read-out: MFC; for MIC: read-out: MIC.
Description: as §1, §2

Series [5] relates to Candida krusei ATCC 14243. Description: Broth microdilution MIC/MFC, reference strain. The format is cell-based. The conditions noted are these: Pichia kudriavzevii, ATCC14243, C. krusei ATCC 14243; for MFC: read-out: MFC; for MIC: read-out: MIC.
Description: as §1, §2

The test system of the next series is L929 and VERO cell lines. Description: MTT cytotoxicity assay. The format is cell-based, mouse; African green monkey. To be noted: 24 h, higher concentrations not reached due to limited solubility. (In general: Tetrazolium dyes change colour on reduction, which living cells bring about.)

Values after ≈ are worked out from the molar mass of the structure shown.

As to `Cc1ccc(-c2csc(N/N=C/C3CC3)n2)cc1` [Compound 3d, (E)-2-(2-(Cyclopropylmethylene)hydrazinyl)-4-p-tolylthiazole], in series [1], the activity at 0.98 µg/mL turned out to be 88.7 ± 2.63%, the activity at 1.95 µg/mL was 100 ± 4.54%, the activity at 3.91 µg/mL worked out at 93.4 ± 5.18% and the activity at 7.81 µg/mL is 90.4 ± 3.29%. Further, the activity at 15.63 µg/mL in series [1] was found to be 84.41 ± 0.08%. In addition, in series [2], the MFC stood at 0.24 µg/mL (≈ 0.933 µM) and the MIC came to 0.06 µg/mL (≈ 0.233 µM). For the same compound, in series [3], the MFC amounted to 0.98 µg/mL (≈ 3.81 µM) and the MIC was 0.24 µg/mL (≈ 0.933 µM). Further, in series [4], the MFC was found to be 1.95 µg/mL (≈ 7.58 µM) and the MIC was 0.12 µg/mL (≈ 0.466 µM). In addition, in series [5], the MFC amounted to 0.48 µg/mL (≈ 1.87 µM) and the MIC was determined as 0.06 µg/mL (≈ 0.233 µM). The “highest possible non-cytotoxic concentration” value in the series on L929 and VERO cell lines turned out to be 31.25 µg/mL.
Turning to `COc1ccc(-c2csc(N/N=C/C3CC3)n2)cc1` [Compound 3f, (E)-2-(2-(Cyclopropylmethylene)hydrazinyl)-4-(4-methoxyphenyl)thiazole], in series [1], the activity at 0.98 µg/mL came out at 89.61 ± 0.77%, the activity at 1.95 µg/mL was 84.2 ± 5.47%, the activity at 3.91 µg/mL amounted to 79.2 ± 6.07% and the activity at 7.81 µg/mL worked out at 86.2 ± 6.35%. In series [1], the activity at 15.63 µg/mL stood at 63 ± 4.88%, the activity at 20 µg/mL was 58.5 ± 3.72%, the activity at 25 µg/mL was found to be 57.8 ± 6.09% and the activity at 31.25 µg/mL was 68 ± 5.37%. In series [2], the minimum fungicidal concentration (MFC) worked out at 0.03 µg/mL (≈ 0.11 µM) and the MIC was 0.015 µg/mL (≈ 0.0549 µM). Besides, in series [3], the minimal fungicidal concentration (MFC) was found to be 3.91 µg/mL (≈ 14.3 µM) and the MIC turned out to be 0.48 µg/mL (≈ 1.76 µM). In addition, in series [4], the MFC was 1.95 µg/mL (≈ 7.13 µM) and the MIC amounted to 0.24 µg/mL (≈ 0.878 µM). For the same compound, in series [5], the MFC came to 0.98 µg/mL (≈ 3.59 µM) and the MIC was determined as 0.48 µg/mL (≈ 1.76 µM). In addition, the “highest possible non-cytotoxic concentration” value in the series with L929 and VERO cell lines is 31.25 µg/mL.
On to `Fc1ccc(-c2csc(N/N=C/C3CC3)n2)c(F)c1` [Compound 3g, (E)-2-(2-(Cyclopropylmethylene)hydrazinyl)-4-(2,4-difluorophenyl)thiazole], for which, in series [1], the activity at 0.98 µg/mL was 105 ± 9.98%, the activity at 1.95 µg/mL came out at 91.8 ± 1.12%, the activity at 3.91 µg/mL was determined as 81.4 ± 1.6% and the activity at 7.81 µg/mL came out at 78.6 ± 4.6%. In series [1], the activity at 15.63 µg/mL amounted to 58.1 ± 2.94% and the activity at 20 µg/mL came out at 60.9 ± 3.81%. In series [2], the MFC turned out to be 0.98 µg/mL (≈ 3.51 µM) and the MIC came out at 0.48 µg/mL (≈ 1.72 µM). In series [3], the MFC was 3.91 µg/mL (≈ 14 µM) and the MIC is 3.91 µg/mL (≈ 14 µM). In series [4], the MFC is 1.95 µg/mL (≈ 6.98 µM) and the MIC stood at 1.95 µg/mL (≈ 6.98 µM). Besides, in series [5], the MFC turned out to be 31.2 µg/mL (≈ 112 µM) and the MIC was 7.81 µg/mL (≈ 28 µM). Moreover, the “highest possible non-cytotoxic concentration” value in the series with L929 and VERO cell lines is 15.63 µg/mL.
For `N#Cc1ccc(-c2csc(N/N=C/C3CC3)n2)cc1` [Compound 3h, (E)-4-(2-(2-(Cyclopropylmethylene)hydrazinyl)thiazol-4-yl)benzonitrile], in series [1], the IC50 worked out at 30.1 µg/mL (≈ 112 µM), the activity at 0.98 µg/mL amounted to 86.1%, the activity at 1.95 µg/mL worked out at 83.3 ± 3.9% and the activity at 3.91 µg/mL was determined as 79.6 ± 1.15%. In series [1], the activity at 7.81 µg/mL amounted to 75.5 ± 4.89%, the activity at 15.63 µg/mL was found to be 65 ± 3.28%, the activity at 20 µg/mL was found to be 56.6 ± 1% and the activity at 25 µg/mL came out at 53.9 ± 6.64%. Further, the activity at 31.25 µg/mL in series [1] was determined as 43.81 ± 0.06%. Further, in series [2], the MFC amounted to 1.95 µg/mL (≈ 7.27 µM) and the MIC is 0.48 µg/mL (≈ 1.79 µM). Besides, in series [3], the MFC is 3.91 µg/mL (≈ 14.6 µM) and the MIC amounted to 3.91 µg/mL (≈ 14.6 µM). Further, in series [4], the MFC amounted to 3.91 µg/mL (≈ 14.6 µM) and the MIC is 1.95 µg/mL (≈ 7.27 µM). For the same compound, in series [5], the MFC worked out at 1.95 µg/mL (≈ 7.27 µM) and the MIC amounted to 0.98 µg/mL (≈ 3.65 µM). For the same compound, in the series with L929 and VERO cell lines, the “highest possible non-cytotoxic concentration” value came out at 31.25 µg/mL.
As to `[N-]=[N+]=Nc1ccc(-c2csc(N/N=C/C3CC3)n2)cc1` [Compound 3i, (E)-4-(4-Azidophenyl)-2-(2-(cyclopropylmethylene)hydrazinyl)thiazole], in series [1], the activity at 0.98 µg/mL stood at 95.3 ± 10.6%, the activity at 1.95 µg/mL turned out to be 93.3 ± 4.67%, the activity at 3.91 µg/mL was 105 ± 2.24% and the activity at 7.81 µg/mL was found to be 92.2 ± 3.71%. Also, in series [1], the activity at 15.63 µg/mL came to 98.8 ± 4.29%. In addition, in series [2], the minimum fungicidal concentration (MFC) was 1.95 µg/mL (≈ 6.86 µM) and the MIC was 0.24 µg/mL (≈ 0.844 µM). In addition, in series [3], the MFC worked out at 7.81 µg/mL (≈ 27.5 µM) and the MIC stood at 0.98 µg/mL (≈ 3.45 µM). In series [4], the MFC was determined as 3.91 µg/mL (≈ 13.8 µM) and the MIC came to 0.98 µg/mL (≈ 3.45 µM). Besides, in series [5], the MFC amounted to 1.95 µg/mL (≈ 6.86 µM) and the MIC is 0.48 µg/mL (≈ 1.69 µM). Besides, in the series with L929 and VERO cell lines, the “highest possible non-cytotoxic concentration” value was 15.63 µg/mL.
Take `O=[N+]([O-])c1ccc(-c2csc(N/N=C/C3CC3)n2)cc1` [Compound 3j, (E)-2-(2-(Cyclopropylmethylene)hydrazinyl)-4-(4-nitrophenyl)thiazole]: in series [1], the IC50 was found to be 21.8 µg/mL (≈ 75.5 µM), the activity at 0.98 µg/mL came to 91 ± 2.47%, the activity at 1.95 µg/mL worked out at 94.44 ± 0.34% and the activity at 3.91 µg/mL was 97.1 ± 4.63%. Besides, in series [1], the activity at 7.81 µg/mL turned out to be 96.7 ± 3.29%, the activity at 15.63 µg/mL was found to be 60 ± 7.86%, the activity at 20 µg/mL was found to be 58.8 ± 1.67% and the activity at 25 µg/mL worked out at 40.3 ± 1.53%. In addition, in series [1], the activity at 31.25 µg/mL was 35.1 ± 424%. In addition, in series [2], the MFC turned out to be 1.95 µg/mL (≈ 6.76 µM) and the MIC turned out to be 0.48 µg/mL (≈ 1.66 µM). Also, in series [3], the MFC came out at 31.2 µg/mL (≈ 108 µM) and the MIC was found to be 3.91 µg/mL (≈ 13.6 µM). In series [4], the MFC came to 7.81 µg/mL (≈ 27.1 µM) and the MIC amounted to 3.91 µg/mL (≈ 13.6 µM). Further, in series [5], the MFC was found to be 3.91 µg/mL (≈ 13.6 µM) and the MIC turned out to be 0.98 µg/mL (≈ 3.4 µM). The “highest possible non-cytotoxic concentration” value in the series with L929 and VERO cell lines was 31.25 µg/mL.
